Ends that are not written are not given here.
Key:
[1] = test system: Mannheimia haemolytica ATCC 33393; assay: MIC, broth dilution; type: cell-based; conditions: for MIC M. haemolytica: M. haemolytica ATCC 33393
Description: (§1) MIC determination. MICs were measured using peptides with 95% purity. For bacterial studies, cation-adjusted Mueller Hinton (MH) broth was used as the growth medium whereas Yeast Peptone Dextrose (YPD; 10 g/L yeast extract, 20 g/L peptone, 20 g/L dextrose) was used for Candida spp. and other yeast. Microorganisms were diluted to an optical density of […] in MH or YPD broth and a 180 μl volume was mixed with 20 μl of peptide arrayed as a 2-fold dilution series in a flat-bottom 96-well microtitre plate. A control was performed using 20 μl of sterile water. Plates were incubated as standing cultures overnight at 37° C.
(§2) Determination of minimum inhibitory concentrations. The MICs were measured for bioactive peptides identified from the initial screen. For bacterial studies, cation-adjusted Mueller Hinton (MH) broth was used as the growth medium whereas YPD was used for C. albicans. Bacterial cultures were diluted to a OD value of 6×10^−4 in MH broth and a 180 μl volume was mixed with 20 μl of peptide arrayed as 2-fold dilution series in a 96-well plate. For the positive control, 20 μl of sterile water was used. Plates were incubated as standing cultures overnight at 37° C. The lowest peptide concentration that resulted no observed microbial growth after an overnight treatment was defined as the MIC.
The ability of STIP3 variants to inhibit the growth of Mannheimia haemolytica ATCC 33393 was evaluated. This included an alanine scan of STIP3-1 (FIG. 8 & Table 10) as well as 30 rationally-designed STIPs that were evaluated in the preceding Examples against other pathogens (Table 11). Substitutions at a greater number of sites were tolerated in the context of antimicrobial activity. Moreover, the inclusion of basic natural and unnatural amino acids (e.g. lysine, ornithine, and arginine) at positions 3, 4 and 11 (i.e. X1, X2, and X4 of SEQ ID NO: 32) to afford a more uniformly cationic peptide increased activity against M. haemolytica.

[2] = test system: M. luteus ATCC 4698; assay: MIC, broth dilution; type: cell-based, Micrococcus luteus; conditions: for MIC (μg/mL) M. luteus: Table 4, liquid broth; for MIC M. luteus: M. luteus ATCC 4698
Description: as §1, §2

[3] = test system: S. aureus ATCC 29213; assay: MIC, broth dilution; type: cell-based, Staphylococcus aureus; conditions: for MIC (μg/mL) S. aureus: liquid broth; for MIC S. aureus: S. aureus ATCC 29213
Description: as §1, §2

[4] = test system: Saccharomyces cerevisiae AR 400; assay: MIC, YPD broth, CDC and FDA AR Candida isolate panel; type: cell-based; conditions: Table 9 below the line: only 200 or 100 μg/mL tested; values reported as 100 are ≤100 μg/mL
Description: as §1

[5] = test system: Candida duobushaemulonii AR 391; assay: as above; type: cell-based; conditions: Table 9 below the line: only 200 or 100 μg/mL tested; values reported as 100 are ≤100 μg/mL
Description: as §1

[6] = test system: Candida duobushaemulonii AR 392; assay: as above; type: cell-based; conditions: Table 9 below the line: only 200 or 100 μg/mL tested; values reported as 100 are ≤100 μg/mL
Description: as §1

[7] = test system: Candida krusei AR 397; assay: as above; type: cell-based; conditions: Table 9 below the line: only 200 or 100 μg/mL tested; values reported as 100 are ≤100 μg/mL
Description: as §1

[8] = test system: Kodamae ohmeri AR 396; assay: as above; type: cell-based; conditions: Table 9 below the line: only 200 or 100 μg/mL tested; values reported as 100 are ≤100 μg/mL
Description: as §1

[9] = test system: Candida haemulonii AR 395; assay: as above; type: cell-based; conditions: Table 9 below the line: only 200 or 100 μg/mL tested; values reported as 100 are ≤100 μg/mL
Description: as §1

[10] = test system: Candida haemulonii AR 393; assay: as above; type: cell-based; conditions: Table 9 below the line: only 200 or 100 μg/mL tested; values reported as 100 are ≤100 μg/mL
Description: as §1

[11] = test system: Saccharomyces cerevisiae AR 399; assay: as above; type: cell-based; conditions: Table 9 below the line: only 200 or 100 μg/mL tested; values reported as 100 are ≤100 μg/mL
Description: as §1

[12] = test system: Candida lusitaniae AR 398; assay: as above; type: cell-based; conditions: Table 9 below the line: only 200 or 100 μg/mL tested; values reported as 100 are ≤100 μg/mL
Description: as §1

[13] = test system: Candida duobushaemulonii AR 394; assay: as above; type: cell-based; conditions: Table 9 below the line: only 200 or 100 μg/mL tested; values reported as 100 are ≤100 μg/mL
Description: as §1

[14] = test system: C. albicans MYA-2876; assay: MIC, YPD broth; type: cell-based, Candida albicans; conditions: for MIC C. albicans: Candida albicans MYA-2876
Description: as §1, §2

[15] = test system: S. aureus ATCC BAA-1683 (MRSA SCCmec type IV); assay: MIC, broth dilution; type: cell-based, Staphylococcus aureus; conditions: Table 5; STIP3 variants, highest concentration 100 μg/mL
Description: as §1, §2

[16] = test system: S. aureus ATCC BAA-2313 (MRSA SCCmec type XI); assay: MIC, broth dilution; type: cell-based, Staphylococcus aureus; conditions: Table 5; STIP3 variants, highest concentration 100 μg/mL
Description: as §1, §2

[17] = test system: S. aureus ATCC BAA-42 (MRSA SCCmec type VI); assay: MIC, broth dilution; type: cell-based, Staphylococcus aureus; conditions: Table 5; STIP3 variants, highest concentration 100 μg/mL
Description: as §1, §2

[18] = test system: S. aureus ATCC BAA-2094 (MRSA SCCmec type V); assay: MIC, broth dilution; type: cell-based, Staphylococcus aureus; conditions: Table 5; STIP3 variants, highest concentration 100 μg/mL
Description: as §1, §2

[19] = test system: S. aureus ATCC 33592 (MRSA SCCmec type III); assay: MIC, broth dilution; type: cell-based, Staphylococcus aureus; conditions: Table 5; STIP3 variants, highest concentration 100 μg/mL
Description: as §1, §2

[20] = test system: S. aureus ATCC BAA-41 (MRSA SCCmec type II); assay: MIC, broth dilution; type: cell-based, Staphylococcus aureus; conditions: Table 5; STIP3 variants, highest concentration 100 μg/mL
Description: as §1, §2

[21] = test system: S. aureus ATCC BAA-44 (MRSA SCCmec type I); assay: MIC, broth dilution; type: cell-based, Staphylococcus aureus; conditions: Table 5; STIP3 variants, highest concentration 100 μg/mL
Description: as §1, §2

Substance	MIC (μg/mL) M. haemolytica ([1]; Table 10, liquid broth)	MIC (μg/mL) M. luteus [2]	MIC (μg/mL) S. aureus ([3]; Table 4)	MIC (μg/mL) S. aureus ([3]; Table 10)	MIC M. haemolytica [1]	MIC C. albicans [14]	MIC M. luteus [2]	MIC S. aureus [3]	further results
TVGGLVKWILDTVKKAA [F16A, TVGGLVKWILDTVKKAA]	> (the use of > indicates an MIC > 200 μg/mL; the maximum concentration tested)	200 µg/mL	> (> = >200 μg/mL (maximum concentration tested))	> (the use of > indicates an MIC > 200 μg/mL; the maximum concentration tested)	–	–	–	–	–
TVGGAVKWILDTVKKFA [L5A, TVGGAVKWILDTVKKFA]	> (the use of > indicates an MIC > 200 μg/mL; the maximum concentration tested)	100 µg/mL	> (> = >200 μg/mL (maximum concentration tested))	> (the use of > indicates an MIC > 200 μg/mL; the maximum concentration tested)	–	–	–	–	–
TVGGLVKWILDTVKKFK [STIP3-7, TVGGLVKWILDTVKKFK]	–	–	–	–	–	–	–	–	MIC (μg/mL) M. haemolytica ([1]; Table 11, highest concentration 25 μg/mL): 25 µg/mL; MIC (μg/mL) Saccharomyces cerevisiae AR 400 [4]: ≤ 100 µg/mL; MIC (μg/mL) Candida duobushaemulonii AR 391 [5]: > (values below the line were determined using two concentrations of peptide 200 or 100 μg/mL); MIC (μg/mL) Candida duobushaemulonii AR 392 [6]: > (values below the line were determined using two concentrations of peptide 200 or 100 μg/mL); MIC (μg/mL) Candida krusei AR 397 [7]: ≤ 100 µg/mL; MIC (μg/mL) Kodamae ohmeri AR 396 [8]: > (values below the line were determined using two concentrations of peptide 200 or 100 μg/mL); MIC (μg/mL) Candida haemulonii AR 395 [9]: > (values below the line were determined using two concentrations of peptide 200 or 100 μg/mL); MIC (μg/mL) Candida haemulonii AR 393 [10]: > (values below the line were determined using two concentrations of peptide 200 or 100 μg/mL); MIC (μg/mL) Saccharomyces cerevisiae AR 399 [11]: ≤ 100 µg/mL; MIC (μg/mL) Candida lusitaniae AR 398 [12]: ≤ 100 µg/mL; MIC (μg/mL) Candida duobushaemulonii AR 394 [13]: > (values below the line were determined using two concentrations of peptide 200 or 100 μg/mL); MIC C. albicans MYA-2876 ([14]; Table 8): 50 µg/mL; MIC S. aureus ATCC BAA 1683 (IV) [15]: > (no inhibition was observed at the highest concentration of peptide tested: 100 μg/mL for the STIP3 variants); MIC S. aureus ATCC BAA 2313 (XI) [16]: > (no inhibition was observed at the highest concentration of peptide tested: 100 μg/mL for the STIP3 variants); MIC S. aureus ATCC 29213 ([3]; Table 5, STIP3 variants, highest concentration 100 μg/mL): > (no inhibition was observed at the highest concentration of peptide tested: 100 μg/mL for the STIP3 variants); MIC S. aureus ATCC BAA 42 (VI) [17]: > (no inhibition was observed at the highest concentration of peptide tested: 100 μg/mL for the STIP3 variants); MIC S. aureus ATCC BAA 2094 (V) [18]: > (no inhibition was observed at the highest concentration of peptide tested: 100 μg/mL for the STIP3 variants); MIC S. aureus ATCC 33592 (III) [19]: > (no inhibition was observed at the highest concentration of peptide tested: 100 μg/mL for the STIP3 variants); MIC S. aureus ATCC BAA 41 (II) [20]: > (no inhibition was observed at the highest concentration of peptide tested: 100 μg/mL for the STIP3 variants); MIC S. aureus ATCC BAA 44 (I) [21]: > (no inhibition was observed at the highest concentration of peptide tested: 100 μg/mL for the STIP3 variants)
TVTKFVKLIAKTVKKFTK [STIP9-2]	–	–	–	–	100 µg/mL	25 µg/mL	6.25 µg/mL	> (the use of > indicates an MIC >200 μg/mL; the maximum concentration tested)	–
TVKSFVNLILKTVKKYAK [STIP8-2]	–	–	–	–	100 µg/mL	100 µg/mL	6.25 µg/mL	> (the use of > indicates an MIC >200 μg/mL; the maximum concentration tested)	–
TVGGLVKWIADTVKKFA [L10A, TVGGLVKWIADTVKKFA]	200 µg/mL	200 µg/mL	> (> = >200 μg/mL (maximum concentration tested))	> (the use of > indicates an MIC > 200 μg/mL; the maximum concentration tested)	–	–	–	–	–
TVGGLVKWALDTVKKFA [I9A, TVGGLVKWALDTVKKFA]	> (the use of > indicates an MIC > 200 μg/mL; the maximum concentration tested)	200 µg/mL	> (> = >200 μg/mL (maximum concentration tested))	> (the use of > indicates an MIC > 200 μg/mL; the maximum concentration tested)	–	–	–	–	–
TVTKFVKLIAKTVKKFTK-NH2 [STIP9-3]	–	–	–	–	100 µg/mL	100 µg/mL	3.13 µg/mL	> (the use of > indicates an MIC >200 μg/mL; the maximum concentration tested)	–
TVKSFVNLILKTVKKYAK-NH2 [STIP8-3]	–	–	–	–	50 µg/mL	> (the use of > indicates an MIC >200 μg/mL; the maximum concentration tested)	3.13 µg/mL	> (the use of > indicates an MIC >200 μg/mL; the maximum concentration tested)	–
TVGGLVKAILDTVKKFA [W8A, TVGGLVKAILDTVKKFA]	200 µg/mL	100 µg/mL	> (> = >200 μg/mL (maximum concentration tested))	> (the use of > indicates an MIC > 200 μg/mL; the maximum concentration tested)	–	–	–	–	–
TVGGLVAWILDTVKKFA [K7A, TVGGLVAWILDTVKKFA]	> (the use of > indicates an MIC > 200 μg/mL; the maximum concentration tested)	200 µg/mL	> (> = >200 μg/mL (maximum concentration tested))	> (the use of > indicates an MIC > 200 μg/mL; the maximum concentration tested)	–	–	–	–	–
TVKSFVNLILDTVKKYAK [STIP8-1]	–	–	–	–	> (the use of > indicates an MIC >200 μg/mL; the maximum concentration tested)	100 µg/mL	100 µg/mL	> (the use of > indicates an MIC >200 μg/mL; the maximum concentration tested)	–
TAGGLVKWILDTVKKFA [V2A, TAGGLVKWILDTVKKFA]	100 µg/mL	50 µg/mL	> (> = >200 μg/mL (maximum concentration tested))	> (the use of > indicates an MIC > 200 μg/mL; the maximum concentration tested)	–	–	–	–	–
TVGGLVKWILDTAKKFA [V13A, TVGGLVKWILDTAKKFA]	200 µg/mL	50 µg/mL	200 µg/mL	–	–	–	–	–	–
TVTKFVKLIAETVKKFTK [STIP9-1]	–	–	–	–	200 µg/mL	100 µg/mL	50 µg/mL	> (the use of > indicates an MIC >200 μg/mL; the maximum concentration tested)	–
TVGGLAKWILDTVKKFA [V6A, TVGGLAKWILDTVKKFA]	100 µg/mL	50 µg/mL	> (> = >200 μg/mL (maximum concentration tested))	> (the use of > indicates an MIC > 200 μg/mL; the maximum concentration tested)	–	–	–	–	–

From patent publication US12370235B2, “Synthetic, non-natural antimicrobial peptides inspired by Staphylococcus auricularis delta toxin” (University of Saskatchewan, priority 2021, dated 2025)
